Experimental data reported in publication PMC7821181, “MS Binding Assays for Glycine Transporter 2 (GlyT2) Employing Org25543 as Reporter Ligand” (Chemmedchem, 2020).
“And” between values parts separate entries of the source, which are not always exact repeats. Equal values may be shown once. “Also recorded” adds a separate entry of the source.

Biological target: T1, hGlyT2 (Homo sapiens, UniProt Q9Y345)
T1 construct: host or cells: HEK293 cells stably expressing hGlyT2; crude membrane fractions
T1 sequence (Q9Y345 1-797): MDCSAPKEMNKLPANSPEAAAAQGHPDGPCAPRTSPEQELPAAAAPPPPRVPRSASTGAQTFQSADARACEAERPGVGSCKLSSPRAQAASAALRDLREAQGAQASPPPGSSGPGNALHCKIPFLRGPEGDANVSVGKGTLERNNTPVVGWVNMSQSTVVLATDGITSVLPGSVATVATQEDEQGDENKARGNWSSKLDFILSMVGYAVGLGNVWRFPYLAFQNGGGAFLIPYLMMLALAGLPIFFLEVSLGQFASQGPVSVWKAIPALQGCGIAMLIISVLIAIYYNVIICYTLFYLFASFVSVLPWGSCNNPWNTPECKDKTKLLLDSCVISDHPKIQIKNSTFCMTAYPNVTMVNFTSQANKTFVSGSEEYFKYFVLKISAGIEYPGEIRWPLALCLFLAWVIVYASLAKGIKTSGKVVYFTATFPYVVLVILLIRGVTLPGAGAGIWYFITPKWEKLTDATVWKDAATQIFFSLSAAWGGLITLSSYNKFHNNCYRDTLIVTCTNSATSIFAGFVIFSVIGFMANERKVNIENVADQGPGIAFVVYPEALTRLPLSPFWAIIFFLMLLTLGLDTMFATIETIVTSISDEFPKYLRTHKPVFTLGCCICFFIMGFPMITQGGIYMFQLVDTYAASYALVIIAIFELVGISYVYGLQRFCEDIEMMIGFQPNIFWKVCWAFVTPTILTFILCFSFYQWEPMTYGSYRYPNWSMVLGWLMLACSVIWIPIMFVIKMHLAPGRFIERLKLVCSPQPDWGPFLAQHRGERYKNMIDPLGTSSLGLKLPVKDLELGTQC
Test: GlyT2 MS Binding Assays: kinetic (dissociation and association) experiments
Procedure: For the determination of the dissociation rate constant of Org25543 the so‐called displacer method was applied. Thus, after the target protein GlyT2 had been incubated with the reporter ligand Org25543 at a defined concentration (final concentration: 10 nM) and the binding allowed to reach equilibrium (1 h) dissociation was initiated by addition of 8 (final concentration: 30 μM). Overall, 12 samples were taken, the first after 15 s and the last after 3 h, and processed as described for competitive binding experiments. The same way nonspecific binding was determined except that the target protein had been subjected to a heat‐shock before. Plotting of specific binding calculated from total and nonspecific binding against time yielded the respective dissociation curves.
Next, for the determination of the association kinetics of Org25543 association experiments had to be performed. By the knowledge of [L] and k off, from k obs as the primary result of such experiments, finally, the derived rate constant k on becomes accessible by using the relation given at Equation 1, the transformed form of which is Equation 2. (1) kobs=kon×L+koff (2) kon=(kobs-koff)/L
For the determination of k obs Org25543 was added to the target protein, to start the association process, which was then stopped at eleven different time points (15 s–2 h), to measure the amount of bound marker at these defined time points. The nonspecific binding was determined for the same time points like for total binding samples but utilizing target material that had been subjected to a heat‐shock before. The concentration of the reporter ligand Org25543 was set to a value of 10 nM. […] For the establishment of association curves specific binding calculated from total binding and nonspecific binding was plotted against time.
Dissociation experiments via displacing Org25543 from GlyT2 with an excess of competitor were performed in 25 mL round bottom flasks made of glass (Duran Wheaton Kimble Life Sciences GmbH, Wertheim, Germany). For determining dissociation rate constants by the displacer approach GlyT2 membrane fractions were pre‐incubated with Org25543 at a nominal concentration of 10 nM at 37 °C in a water bath for 1 h in a total volume of 24.85 mL. The solution and the water bath were stirred constantly with magnetic stir bars at a frequency of ∼500 rpm. After 1 h of incubation dissociation was initiated by adding 150 μL of 8 resulting in […] of 30 μM. After defined time points (15 s–3 h, twelve dissociation time points, samples for each time point were prepared in triplicates) dissociation was terminated via vacuum filtration and the samples were treated the same way as described in Experimental Section MS Binding Assay: General procedure. Nonspecific binding was determined at the same time points as for the dissociation samples but incubating 10 nM Org25543 in the presence of 30 μM 8 and heat‐shocked GlyT2 membrane preparations (triplicate).

In the case of COc1cc(C(=O)NCC2(N(C)C)CCCC2)cc(OC)c1OCc1ccccc1 [Org25543, N‐[[1‐(dimethylamino)cyclopentyl]methyl]‐3,5‐dimethoxy‐4‐(phenylmethoxy)benzamide], the Kd is reported as 6.99 nM, the “k obs (observed association rate constant)” value (Org25543 10 nM, 37 °C, mean±SEM, n=3) is reported as 1.72±0.01×10^−2 s^−1 and 1.72×10^−2 s^−1 and the koff (Org25543 10 nM, displacement by 30 μM 8, 37 °C, mean±SEM, n=3, read-out: k off (dissociation rate constant)) is reported as 0.00707 s⁻¹. The kon (calculated as (k obs−k off)/L, read-out: k on (association rate constant)) was 1.01e+06 M⁻¹ s⁻¹ and the “reversibility of binding at GlyT2, in words” value (dissociation experiments) was “fully reversible; also recorded: full reversibility”.
